Literature values in US20240327780A1 (priority 2023, published 2024).
Counter-ions that a name gives are not always drawn.

Test system: SARS-CoV-2 nsp14

Compound: Fc1ccc(C(c2ccc(F)cc2)N2CCN(C/C=C/c3ccccc3)CC2)cc1 [flunarizine dihydrochloride]
- inhibition of nsp14 in fluorescence-based screen: selective inhibitors

Compound: Clc1ccc2nsnc2c1NC1=NCCN1 [tizanidine hydrochloride]
- inhibition of nsp14 in fluorescence-based screen: selective inhibitors
